27 compounds from patent publication US20130096067A1, “DROSOPHILA TUMOR STEM CELL MODEL AND USES THEREOF” (priority 2011, published 2013) can be followed below.

The test system of the test is Raf-1^gof intestinal tumors. In words: Luciferase screen of FDA-approved (NCI) drugs in 96-well plates, flies with Raf-1^gof intestinal tumors. For Avg (3 + 6): test concentration or dose not given here. For Log2 (fold): test concentration or dose not given here. Format: in vivo, Drosophila.
Setting [1] is: average of Day 3 and Day 6 fold.
Where [2] appears, read: log2 of the Day 3 fold difference in luciferase relative to DMSO controls.
Setting [3] is: luciferase activity relative to DMSO controls, single dose of drug for three days, 96-well plates.
[4] abbreviates: six-day protocol: single dose for three days, then another dose for three more days.

Where a name gives a salt, the structure may show the parent alone.

Turning to `OC[C@H]1O[C@@H](n2cnc3c2NC=NC[C@H]3O)C[C@@H]1O` [Pentostatin], the “Avg (3 + 6)” value under setting [1] is 0.951 fold. For the setting “po, 72 h”, the “Day 3 Fold” value was 1.232 fold and the “Log2 (fold)” value was found to be 0.301.

In the case of `N[C@@H](Cc1ccc(N(CCCl)CCCl)cc1)C(=O)O` [Melphalan], the “Avg (3 + 6)” value under setting [1] was 0.939 fold. Under setting [2], the “Log2 (fold)” value worked out at 0.001. Moreover, the “Day 3 Fold” value under setting [3] turned out to be 1.001 fold. Moreover, the “Day 6 Fold” value under setting [4] was 0.876 fold.

Consider `O=C(CCCCCCC(=O)Nc1ccccc1)NO` [Vorinostat], for which the “Avg (3 + 6)” value under setting [1] is listed as 0.749 fold. In addition, the “Log2 (fold)” value under setting [2] is −0.703. Besides, the “Day 3 Fold” value under setting [3] worked out at 0.614 fold. The “Day 6 Fold” value under setting [4] amounted to 0.883 fold.

As to `CCN(CC)CCCC(C)Nc1c2ccc(Cl)cc2nc2ccc(OC)cc12` (stereo not drawn) [Acrichine], the “Avg (3 + 6)” value under setting [1] was 1.046 fold. The “Log2 (fold)” value under setting [2] is recorded as −0.212. The “Day 3 Fold” value under setting [3] is 0.863 fold. For the same compound, the “Day 6 Fold” value under setting [4] stood at 1.229 fold.

With `Nc1nc(Cl)nc2c1ncn2[C@H]1C[C@H](O)[C@@H](CO)O1` [Cladribine], the “Avg (3 + 6)” value under setting [1] is 0.852 fold. Also, the “Log2 (fold)” value under setting [2] was 0.072. Further, the “Day 3 Fold” value under setting [3] is given as 1.051 fold. Further, the “Day 6 Fold” value under setting [4] is reported as 0.652 fold.

As to `CC(C)Cn1cnc2c(N)nc3ccccc3c21` [Imiquimod], the “Avg (3 + 6)” value under setting [1] is reported as 0.888 fold. In addition, the “Log2 (fold)” value under setting [2] came out at 0.086. Also, the “Day 3 Fold” value under setting [3] amounted to 1.061 fold. The “Day 6 Fold” value under setting [4] was determined as 0.715 fold.

For the compound Arsenic trioxide, under setting [1], the “Avg (3 + 6)” value amounted to 0.981 fold. Also, under setting [2], the “Log2 (fold)” value is on record as −0.074. Also, the “Day 3 Fold” value under setting [3] was determined as 0.950 fold. Further, the “Day 6 Fold” value under setting [4] is recorded as 1.012 fold.

As for `Nc1nc(F)nc2c1ncn2[C@@H]1O[C@H](CO)[C@@H](O)[C@@H]1O` [Fludarabine], the “Avg (3 + 6)” value under setting [1] came to 1.191 fold. Moreover, for the setting “po, 72 h”, the “Day 3 Fold” value is 1.192 fold and the “Log2 (fold)” value was determined as 0.253.

Regarding `CNNCc1ccc(C(=O)NC(C)C)cc1` [Procarbazine], under setting [1], the “Avg (3 + 6)” value was 1.119 fold. Further, the “Log2 (fold)” value under setting [2] came out at 0.470. In addition, the “Day 3 Fold” value under setting [3] was 1.385 fold. Besides, the “Day 6 Fold” value under setting [4] is on record as 0.854 fold.

`Oc1ncc(N(CCCl)CCCl)c(O)n1` [Uracil mustard]: under “in vivo”, the “Avg (3 + 6)” value is 0.869 fold, the “Day 3 Fold” value came to 0.966 fold, the “Day 6 Fold” value turned out to be 0.773 fold and the “Log2 (fold)” value is listed as −0.050.

In the case of `Nc1nc2[nH]cc(CCc3ccc(C(=O)N[C@@H](CCC(=O)O)C(=O)O)cc3)c2c(=O)[nH]1` [Pemetrexed], the “Avg (3 + 6)” value under setting [1] was 0.365 fold. Moreover, the “Log2 (fold)” value under setting [2] is given as −0.783. The “Day 3 Fold” value under setting [3] was determined as 0.581 fold. Under setting [4], the “Day 6 Fold” value amounted to 0.149 fold.

In the case of `CCc1c2c(nc3ccc(OC(=O)N4CCC(N5CCCCC5)CC4)cc13)-c1cc3c(c(=O)n1C2)COC(=O)[C@]3(O)CC` [Irinotecan HCl], under “in vivo”, the “Avg (3 + 6)” value came to 0.705 fold, the “Day 3 Fold” value amounted to 0.870 fold, the “Day 6 Fold” value is reported as 0.541 fold and the “Log2 (fold)” value is −0.201.

For the compound `C[C@]12CC[C@@H]3c4ccc(O)cc4C[C@@H](CCCCCCCCC[S+]([O-])CCCC(F)(F)C(F)(F)F)[C@H]3[C@@H]1CC[C@@H]2O` (stereo partly drawn) [Fulvestrant], the “Avg (3 + 6)” value under setting [1] was 1.172 fold. Moreover, the “Log2 (fold)” value under setting [2] is given as −0.221. Further, under setting [3], the “Day 3 Fold” value is on record as 0.858 fold. Also, the “Day 6 Fold” value under setting [4] is reported as 1.486 fold.

As for `C[C@@H](CN1CC(=O)NC(=O)C1)N1CC(=O)NC(=O)C1` [Dexrazoxone], the “Avg (3 + 6)” value under setting [1] was found to be 0.599 fold. The “Log2 (fold)” value under setting [2] is recorded as −0.428. Besides, under setting [3], the “Day 3 Fold” value amounted to 0.743 fold. The “Day 6 Fold” value under setting [4] is on record as 0.454 fold.

As to `O=NN(CCCl)C(=O)NC1CCCCC1` [Lomustine, CCNU, Lomustine], the “Avg (3 + 6)” value under setting [1] is on record as 0.712 fold. Besides, where the note is “po, 72 h”, the “Day 3 Fold” value came out at 0.651 fold and the “Log2 (fold)” value was −0.619.

Take `O=c1[nH]c(=O)n([C@H]2C[C@H](O)[C@@H](CO)O2)cc1F` [Floxuridine]: under setting [1], the “Avg (3 + 6)” value turned out to be 0.149 fold. Further, the “Log2 (fold)” value under setting [2] is given as −2.204. The “Day 3 Fold” value under setting [3] turned out to be 0.217 fold. Further, the “Day 6 Fold” value under setting [4] was determined as 0.080 fold.

`O=C(CCBr)N1CCN(C(=O)CCBr)CC1` [Pipobroman]: under setting [1], the “Avg (3 + 6)” value was determined as 0.853 fold. In addition, under setting [2], the “Log2 (fold)” value is reported as −0.011. The “Day 3 Fold” value under setting [3] worked out at 0.992 fold. Under setting [4], the “Day 6 Fold” value was determined as 0.714 fold.

On to `O=c1[nH]cc(F)c(=O)[nH]1` [Fluorouracil], for which the “Avg (3 + 6)” value under setting [1] was determined as 0.770 fold. For the same compound, the “Log2 (fold)” value under setting [2] was −0.448. The “Day 3 Fold” value under setting [3] worked out at 0.733 fold. The “Day 6 Fold” value under setting [4] came out at 0.806 fold.

In the case of `C1CN1c1nc(N2CC2)nc(N2CC2)n1` [Triethylenemelamine (TEM), Triethylenemelamine], where the note is “in vivo”, the “Avg (3 + 6)” value is on record as 0.301 fold, the “Day 3 Fold” value is listed as 0.349 fold, the “Day 6 Fold” value worked out at 0.253 fold and the “Log2 (fold)” value is given as −1.519.

For the compound `Nc1ncn([C@@H]2O[C@H](CO)[C@@H](O)[C@H]2O)c(=O)n1` [Azacitidine], the “Avg (3 + 6)” value under setting [1] was 1.045 fold. The “Log2 (fold)” value under setting [2] is 0.157. Further, the “Day 3 Fold” value under setting [3] is 1.115 fold. Also, the “Day 6 Fold” value under setting [4] came out at 0.976 fold.

For `Cc1ccc(NC(=O)c2ccc(CN3CCN(C)CC3)cc2)cc1Nc1nccc(-c2cccnc2)n1` [Imatinib], under setting [1], the “Avg (3 + 6)” value worked out at 0.674 fold. Further, the “Log2 (fold)” value under setting [2] is −0.558. Further, under setting [3], the “Day 3 Fold” value is on record as 0.679 fold. The “Day 6 Fold” value under setting [4] was found to be 0.670 fold.

On to `Clc1ccc(C(c2ccccc2Cl)C(Cl)Cl)cc1` (stereo not drawn) [Mitotane], for which, for the setting “in vivo”, the “Avg (3 + 6)” value is listed as 0.882 fold, the “Day 3 Fold” value was 0.827 fold, the “Day 6 Fold” value stood at 0.938 fold and the “Log2 (fold)” value was −0.274.

Take `N#Cc1ccc(C(c2ccc(C#N)cc2)n2cncn2)cc1` [Letrozole]: the “Avg (3 + 6)” value under setting [1] came to 1.302 fold. The “Log2 (fold)” value under setting [2] came to 0.337. Besides, the “Day 3 Fold” value under setting [3] was determined as 1.263 fold. In addition, the “Day 6 Fold” value under setting [4] worked out at 1.342 fold.

On to `NCCCNCCSP(=O)(O)O` [Amifostine], for which the “Avg (3 + 6)” value under setting [1] is 1.239 fold. Also, the “Log2 (fold)” value under setting [2] was 0.248. Also, the “Day 3 Fold” value under setting [3] is on record as 1.187 fold. For the same compound, the “Day 6 Fold” value under setting [4] was 1.291 fold.

For `C/C(=C\c1csc(C)n1)[C@@H]1C[C@@H]2O[C@]2(C)CCC[C@H](C)[C@H](O)[C@@H](C)C(=O)C(C)(C)[C@@H](O)CC(=O)N1` [Ixabepilone], the “Avg (3 + 6)” value under setting [1] is 0.765 fold. The “Log2 (fold)” value under setting [2] is −0.009. Also, the “Day 3 Fold” value under setting [3] came to 0.994 fold. Also, the “Day 6 Fold” value under setting [4] is on record as 0.536 fold.

As to `CC(C)(C#N)c1cc(Cn2cncn2)cc(C(C)(C)C#N)c1` [Anastrozole], the “Avg (3 + 6)” value under setting [1] is recorded as 1.000 fold. For the same compound, the “Log2 (fold)” value under setting [2] is recorded as −0.053. Under setting [3], the “Day 3 Fold” value is recorded as 0.964 fold. In addition, the “Day 6 Fold” value under setting [4] came to 1.036 fold.

As to `N.N.[Cl][Pt][Cl]` [Cisplatin], the “Avg (3 + 6)” value under setting [1] came out at 1.113 fold. Besides, the “Log2 (fold)” value under setting [2] is 0.145. In addition, under setting [3], the “Day 3 Fold” value was found to be 1.106 fold. Further, the “Day 6 Fold” value under setting [4] was 1.120 fold.
